Key:
Type in all cases: cell-based
RPMI-8226 = assay: NCI 60 cell line screen (SRB), Leukemia; conditions: RPMI-8226 (Leukemia)
A549/ATCC = assay: NCI 60 cell line screen (SRB), Non-Small Cell Lung Cancer
HOP-92 = assay: as above; conditions: HOP-92 (Non-Small Cell Lung Cancer)
NCI-H322M = assay: as above
COLO 205 = assay: NCI 60 cell line screen (SRB), Colon Cancer; conditions: COLO 205 (Colon Cancer)
HCT-15 = assay: NCI 60 cell line screen (SRB), Colon Cancer; conditions: HCT-15 (Colon Cancer)
KM12 = assay: NCI 60 cell line screen (SRB), Colon Cancer
SW-620 = assay: NCI 60 cell line screen (SRB), Colon Cancer; conditions: SW-620 (Colon Cancer)
SF-268 = assay: NCI 60 cell line screen (SRB), CNS Cancer; conditions: SF-268 (CNS Cancer)
SNB-19 = assay: NCI 60 cell line screen (SRB), CNS Cancer; conditions: SNB-19 (CNS Cancer)
U251 = assay: NCI 60 cell line screen (SRB), CNS Cancer
LOX IMVI = assay: NCI 60 cell line screen (SRB), Melanoma
SK-MEL-28 = assay: NCI 60 cell line screen (SRB), Melanoma; conditions: SK-MEL-28 (Melanoma)
OVCAR-3 = assay: NCI 60 cell line screen (SRB), Ovarian Cancer; conditions: OVCAR-3 (Ovarian Cancer)
OVCAR-8 = assay: NCI 60 cell line screen (SRB), Ovarian Cancer; conditions: OVCAR-8 (Ovarian Cancer)
ACHN = assay: NCI 60 cell line screen (SRB), Renal Cancer
CAKI-1 = assay: NCI 60 cell line screen (SRB), Renal Cancer; conditions: CAKI-1 (Renal Cancer)
SN12C = assay: NCI 60 cell line screen (SRB), Renal Cancer
UO-31 = assay: NCI 60 cell line screen (SRB), Renal Cancer; conditions: UO-31 (Renal Cancer)
MCF7 = assay: NCI 60 cell line screen (SRB), Breast Cancer
MCF7/ADR-RES = assay: NCI 60 cell line screen (SRB), Breast Cancer
HS 578T = assay: NCI 60 cell line screen (SRB), Breast Cancer; conditions: HS 578T (Breast Cancer)
MDA-N = assay: NCI 60 cell line screen (SRB), Breast Cancer
BT-549 = assay: NCI 60 cell line screen (SRB), Breast Cancer; conditions: BT-549 (Breast Cancer)
60 cell line panel = assay: NCI 60 cell line screen, values over the whole panel; conditions: mean value over the cell line panel
[1] = tested on: murine keratinocyte cell line PE; assay: Growth inhibition of PE cells (MTT assay); conditions: murine keratinocytes, FIGS. 1-9
Description: To determine the inhibitory effect of the trioxane dimers of the present invention on cell proliferation, screening assays were performed on a murine keratinocyte cell line PE. […] PE cell culture medium consisted of Eagle's minimal essential medium without calcium chloride (Whittaker Bioproducts, Walkersville, Ma.) supplemented with 8% chelexed fetal calf serum and 1% antibiotic-antimycotic (Gibco BRL) and the addition of CaCl2 to 0.05 mM Ca^++. […] (St. Louis, Mo.), and TPA was supplied by L. C. Services (Woburn, Ma.). L-[^14C]ornithine ([…]) was from Amersham/Searle Corp. (Arlington Heights, Ill.). Chemical solvents used in all assays of biological activity were of the highest grade commercially available. Growth Inhibition. […] A mitochondrial dehydrogenase reduces MTT to a blue formazan product with an absorbance maximum of 505 nm in DMSO; the number of viable cells can thus be determined spectrophotometrically. PE cells were seeded at a density of 5,000 cells/well in 50 μL of medium into 96-well microtiter plates. […] The plates were fed once at 48 h, with the readdition of the vitamin D3 analogs at this time. […] After 4 h, the MTT was removed and DMSO added to dissolve the blue formazan dye. Using a microtiter plate reader, the […] was then determined and cell number calculated from blank-subtracted absorbance values.

`COC1OC2(C)CCC3CCCC(CCOC(=O)c4ccc(C(=O)OCCC5CCCC6CCC7(C)OOC56C(OC)O7)cc4)C31OO2` (stereo not shown) [Compound 11, Bis-ester Dimer] was tested, and the Log10GI50 (RPMI-8226) was −6.33 M, the Log10LC50 (RPMI-8226) was over −4.00 M and the Log10TGI (RPMI-8226) was −5.10 M. It also gave a Log10GI50 (A549/ATCC) of −5.42 M, a Log10LC50 (A549/ATCC) of over −4.00 M and a Log10TGI (A549/ATCC) of over −4.00 M. The Log10GI50 (HOP-92) was −4.91 M, the Log10LC50 (HOP-92) was over −4.00 M and the Log10TGI (HOP-92) was over −4.00 M. The Log10GI50 (NCI-H322M) was −4.69 M, the Log10LC50 (NCI-H322M) was over −4.00 M and the Log10TGI (NCI-H322M) was over −4.00 M. The Log10GI50 (COLO 205) was −6.31 M, the Log10LC50 (COLO 205) was −5.17 M and the Log10TGI (COLO 205) was −5.71 M. The Log10GI50 (HCT-15) was −6.12 M, the Log10LC50 (HCT-15) was over −4.00 M and the Log10TGI (HCT-15) was over −4.00 M. The Log10GI50 (KM12) was −6.24 M, the Log10LC50 (KM12) was over −4.00 M and the Log10TGI (KM12) was over −4.00 M. The Log10GI50 (SW-620) was −6.12 M, the Log10LC50 (SW-620) was over −4.00 M and the Log10TGI (SW-620) was over −4.00 M. For the same compound, the Log10GI50 (SF-268) was −5.14 M, the Log10LC50 (SF-268) was over −4.00 M and the Log10TGI (SF-268) was over −4.00 M. It also gave a Log10GI50 (SNB-19) of −5.31 M, a Log10LC50 (SNB-19) of over −4.00 M and a Log10TGI (SNB-19) of over −4.00 M. For the same compound, the Log10GI50 (U251) was −6.02 M, the Log10LC50 (U251) was over −4.00 M and the Log10TGI (U251) was over −4.00 M. For the same compound, the Log10GI50 (LOX IMVI) was −6.28 M, the Log10LC50 (LOX IMVI) was over −4.00 M and the Log10TGI (LOX IMVI) was over −4.00 M. It also gave a Log10GI50 (SK-MEL-28) of −4.31 M, a Log10LC50 (SK-MEL-28) of over −4.00 M and a Log10TGI (SK-MEL-28) of over −4.00 M. It also gave a Log10GI50 (OVCAR-3) of −5.63 M, a Log10LC50 (OVCAR-3) of over −4.00 M and a Log10TGI (OVCAR-3) of over −4.00 M. For the same compound, the Log10GI50 (OVCAR-8) was −6.03 M, the Log10LC50 (OVCAR-8) was over −4.00 M and the Log10TGI (OVCAR-8) was over −4.00 M. The Log10GI50 (ACHN) was −5.42 M, the Log10LC50 (ACHN) was over −4.00 M and the Log10TGI (ACHN) was over −4.00 M. The Log10GI50 (CAKI-1) was −4.99 M, the Log10LC50 (CAKI-1) was over −4.00 M and the Log10TGI (CAKI-1) was over −4.00 M. It also gave a Log10GI50 (SN12C) of −5.46 M, a Log10LC50 (SN12C) of over −4.00 M and a Log10TGI (SN12C) of over −4.00 M. The Log10GI50 (UO-31) was −5.63 M, the Log10LC50 (UO-31) was over −4.00 M and the Log10TGI (UO-31) was over −4.00 M. For the same compound, the Log10GI50 (MCF7) was −5.86 M, the Log10LC50 (MCF7) was over −4.00 M and the Log10TGI (MCF7) was over −4.00 M. The Log10GI50 (MCF7/ADR-RES) was −5.11 M, the Log10LC50 (MCF7/ADR-RES) was over −4.00 M and the Log10TGI (MCF7/ADR-RES) was over −4.00 M. It also gave a Log10GI50 (HS 578T) of −4.55 M, a Log10LC50 (HS 578T) of over −4.00 M and a Log10TGI (HS 578T) of over −4.00 M. For the same compound, the Log10GI50 (MDA-N) was −5.56 M, the Log10LC50 (MDA-N) was over −4.00 M and the Log10TGI (MDA-N) was over −4.00 M. For the same compound, the Log10GI50 (BT-549) was −5.44 M, the Log10LC50 (BT-549) was over −4.00 M and the Log10TGI (BT-549) was over −4.00 M. For the same compound, the “Log10GI50 MG MID” value (60 cell line panel) was −5.59 M, the “Log10LC50 MG MID” value (60 cell line panel) was −4.04 M and the “Log10TGI MG MID” value (60 cell line panel) was −4.19 M. For the same compound, the antiproliferative activity [1] was “high antiproliferative activity”.

Reference: patent USRE38117E1, “Trioxane dimer compound having antiproliferative and antitumor activities” (Hauser, Inc., priority 1995, dated 2003)
